A value given as a limit tells only on which side of the number the result lay.

28 molecules from US20240252477A1, “NLRP3 INFLAMMASOME-INHIBITING COMPOUNDS AND THE USE THEREOF” (UNIVERSITA' DEGLI STUDI DI TORINO (60%), priority 2021, published 2024) can be followed below.

Data set [1] has as its target T1, NLRP3 inflammasome (Homo sapiens, UniProt Q96P20).
T1 construct: The THP-1 cells were differentiated into macrophages by treating them with PMA 50 nM; endogenous in cells; host or cells: THP-1 (human monocytic leukaemia line), PMA-differentiated, primed with LPS, triggered with ATP
Briefly: NLRP3-dependent pyroptosis (LDH release) in PMA-differentiated THP-1 cells stimulated with LPS/ATP. The settings on record: compounds at 10 μM for 1 hour; differentiated THP-1, LPS 10 μg/mL 4 hours, ATP 1.5 hours; read-out: Pyroptosis inhibition (% ± SEM). It counts as cell-based. As to the method: THP-1 cells, a monocytic human cell line derived from the peripheral blood of a patient suffering from acute monocytic leukaemia (www.atcc.org), were cultured in RPMI 1640 medium (Aurogene, Rome, Italy), with the addition of foetal bovine serum (10%, Aurogene), L-glutamine (2 mM, Aurogene), penicillin (100 IU/ml, Aurogene) and streptomycin ([…], Aurogene). The medium was changed every 2-3 days, and the cells were maintained in an incubator at 37° C., with 5% CO2, and with suitable humidity.
The cells were seeded in 48-well plates (90.000 cells/well), and differentiated with phorbol 12-myristate 13-acetate (PMA—50 nM, 24 hours; Sigma-Aldrich). On the next day, the differentiated THP-1s were washed twice with the balanced saline solution phosphate-buffered saline (PBS), and stimulated with lipopolysaccharide (LPS) (10 μg/mL, 4 hours; Sigma-Aldrich), prepared in serum-free medium. After 4 hours the cells were incubated with the compounds at the concentration of 10 μM for 1 hour, operating in triplicate; INF176 and INF177 were tested at three different concentrations: […]. Finally, the cells were stimulated with ATP 5 mm for 1.5 hours. The supernatants were then harvested for the subsequent analyses.
LDH release into the supernatant obtained as described above was quantified using the CytoTox 96 nonradioactive cytotoxicity assay (Promega Corporation, Madison, […], USA), a colorimetric assay wherein LDH activity is measured with an NADH-dependent enzymatic reaction:
Briefly, an equal volume of CytoTox Reagent was added to the supernatant and, after 30 minutes' incubation, the reaction was stopped by adding the stop solution. The formazan concentration was determined by measuring absorbance, using a microplate reader (Victor X4—EnSight, PerkinElmer, Waltham, MA, USA), at λ=490 nm. Cell death was expressed according to the manufacturer's instructions.
The compound INF176 was tested to measure its ability to inhibit NLRP3-dependent cell pyroptosis in human macrophages, using the experimental protocol previously published [Cocco et al. 2017].
The THP-1 cells were differentiated into macrophages by treating them with PMA 50 nM (24 hours) and then with LPS (10 μg/mL) for 4 hours. The cells were treated with the compound (10 μM) for 1 hour. Pyroptosis was induced by treatment with ATP 5 mm. After 90 minutes, cell death was evaluated by measuring the LDH level in the cell supernatant using the CytoTox 96 Non-Radioactive Cytotoxicity Assay (Promega Corporation, Madison, […], USA).

A short description of data set [2]: Cytotoxicity (MTT assay). To be noted: human; THP-1 cells, 72 hours' incubation. It counts as cell-based, human. As to the method:
The THP-1 cells were seeded in a 96-well plate (15.000 cells/well) and incubated with the test compounds at four different concentrations (0.1, 1, 10 and 100 μM), operating in triplicate. The cells were placed in an incubator at 37° C., with 5% CO2, and cell viability was measured after 72 hours' incubation, using the MTT assay. This is a colorimetric assay, based on conversion of water-soluble 3-(4,5-dimethylthiazol-2-yl)-2,5-diphenyltetrazolium bromide (MTT; Sigma-Aldrich) to a violet-coloured insoluble formazan, by the mitochondrial dehydrogenase present in the live cells. The formazan is solubilised in acidified isopropanol, and the concentration is determined by measuring absorbance with a microplate reader (Victor X4—Ensight, PerkinElmer) at λ=570 nm. Viability was expressed as a percentage of the viability of the control cells, which were either untreated or treated with the carrier. The IC50 was calculated with the Graph Pad Prism software.
(In general: Tetrazolium dyes change colour on reduction, which living cells bring about.)

T1 sequence (Q96P20 whole entry): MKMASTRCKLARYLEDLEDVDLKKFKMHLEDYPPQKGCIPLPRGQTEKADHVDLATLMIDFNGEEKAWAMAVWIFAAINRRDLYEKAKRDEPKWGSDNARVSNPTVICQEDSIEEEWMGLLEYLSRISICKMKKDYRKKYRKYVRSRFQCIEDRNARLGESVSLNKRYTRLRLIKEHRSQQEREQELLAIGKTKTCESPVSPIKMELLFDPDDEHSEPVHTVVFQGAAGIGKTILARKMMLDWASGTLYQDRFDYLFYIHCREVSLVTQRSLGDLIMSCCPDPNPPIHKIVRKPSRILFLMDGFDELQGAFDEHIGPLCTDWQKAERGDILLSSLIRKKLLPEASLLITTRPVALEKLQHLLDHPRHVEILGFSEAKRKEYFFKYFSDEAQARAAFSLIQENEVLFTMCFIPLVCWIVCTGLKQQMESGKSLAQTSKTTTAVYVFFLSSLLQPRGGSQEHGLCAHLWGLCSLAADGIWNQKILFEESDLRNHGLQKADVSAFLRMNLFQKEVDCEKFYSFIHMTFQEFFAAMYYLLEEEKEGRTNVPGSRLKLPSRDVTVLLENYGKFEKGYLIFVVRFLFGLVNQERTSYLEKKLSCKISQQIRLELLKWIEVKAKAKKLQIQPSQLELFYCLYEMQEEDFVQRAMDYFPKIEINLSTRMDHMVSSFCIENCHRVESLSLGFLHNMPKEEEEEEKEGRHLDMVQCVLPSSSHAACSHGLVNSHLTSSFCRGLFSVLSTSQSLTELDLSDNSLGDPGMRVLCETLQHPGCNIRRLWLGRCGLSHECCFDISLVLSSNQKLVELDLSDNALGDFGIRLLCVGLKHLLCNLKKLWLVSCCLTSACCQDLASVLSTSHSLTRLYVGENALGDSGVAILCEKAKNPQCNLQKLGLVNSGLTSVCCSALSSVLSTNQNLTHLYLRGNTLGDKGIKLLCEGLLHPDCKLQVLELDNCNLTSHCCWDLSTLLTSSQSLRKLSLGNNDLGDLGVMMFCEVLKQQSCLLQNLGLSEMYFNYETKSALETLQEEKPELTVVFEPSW

By inhibition is commonly meant the change of the read-out against control, counted positive when it falls. A word on the IC50: it is the concentration at which inhibition is half-maximal. High values mean weaker potency in that assay, low ones greater potency in that assay. For `CCOC(=O)[C@H](CSc1ccccc1)[C@H](O)c1ccccc1Cl` (mixture of isomers) [INF38a, Ethyl(2S,3S)-3-(2-chlorophenyl)-3-hydroxy-2-(phenylsulphanylmethyl)-propanoate and ethyl(2S,3R)-3-(2-chlorophenyl)-3-hydroxy-2-(phenylsulphanylmethyl)propanoate], the inhibition at 10 µM in data set [1] was 26.9 ± 4.9%. Also, the IC50 at 72 h in data set [2] is over 100 µM.

On to `CCOC(=O)[C@@H](CSc1ccccc1)[C@H](O)c1ccccc1Cl` (mixture of isomers) [INF38s, Ethyl(2S,3S)-3-(2-chlorophenyl)-3-hydroxy-2-(phenylsulphanylmethyl)-propanoate and ethyl(2R,3R)-3-(2-chlorophenyl)-3-hydroxy-2-(phenylsulphanylmethyl)propanoate], for which the inhibition at 10 µM in data set [1] came out at 23.5 ± 4.2%. Also, in data set [2], the IC50 at 72 h was over 100 µM.

Turning to `CCOC(=O)[C@@H](CN1CCCC1)[C@H](O)c1ccccc1Cl` (racemic) [INF37 syn], in data set [1], the inhibition at 10 µM worked out at 32.2 ± 5.7%.

Take `CCOC(=O)[C@@H](C[S+]([O-])c1ccccc1)[C@H](O)c1ccccc1Cl` (mixture of isomers) [INF44, ethyl 3-(2-chlorophenyl)-3-hydroxy-2-((phenylsulphinyl)methyl)propanoate]: the inhibition at 10 µM in data set [1] was under 10%. This molecule came in with an IC50 at 72 h in data set [2] of over 100 µM. The molecule `CCOC(=O)[C@H]1CCCN(C(=O)[C@@H](CSc2ccccc2)Cc2ccccc2Cl)C1` (racemic) [INF184+INF185, ethyl 1-(2-(2-chlorobenzyl)-3-(phenylthio)propanoyl)piperidine-3-carboxylate] displayed an IC50 at 72 h in data set [2] of 75.4 ± 2.6 µM. Take `CCOC(=O)[C@@H]1CCCN(C(=O)[C@@H](CSc2ccccc2)Cc2ccccc2Cl)C1` (racemic) [INF185, ethyl 1-(2-(2-chlorobenzyl)-3-(phenylthio)propanoyl)piperidine-3-carboxylate]: in data set [1], the inhibition at 10 µM is under 10%.

With `CCOC(=O)[C@H](CN1CCCC1)[C@H](O)c1ccccc1Cl` (stereo in doubt) [INF37 anti], in data set [1], the inhibition at 10 µM was determined as 21.1 ± 2.9%.

For the molecule `CCOC(=O)[C@@H](CS(=O)(=O)c1ccccc1)[C@H](O)c1ccccc1Cl` (stereo in doubt) [INF45, ethyl 3-(2-chlorophenyl)-3-hydroxy-2-((phenylsulphonyl)methyl)propanoate], the inhibition at 10 µM in data set [1] is 45.8 ± 6.7%. In data set [2], this molecule registered an IC50 at 72 h of over 100 µM.

`CCOC(=O)C(CN1CCCC1)C(O)c1ccccc1Cl` (stereo not drawn) [INF37 (syn), ethyl 3-(2-chlorophenyl)-3-hydroxy-2-(pyrrolidin-1-ylmethyl)propanoate] yielded a 50% inhibitory concentration (IC50) at 72 h in data set [2] of over 100 µM. For the molecule `CCOC(=O)/C(=C/c1ccccc1Cl)CSc1ccccc1` [INF42, ethyl (Z)-3-(2-chlorophenyl)-2-((phenylthio)methyl)acrylate], in data set [1], the inhibition at 10 µM was 69.1 ± 2.2%. The molecule also yielded an IC50 at 72 h in data set [2] of over 100 µM. For the molecule `CCOC(=O)C(CSc1ccccc1)Cc1ccccc1Cl` (centres unmarked) [INF43, ethyl 2-(2-chlorobenzyl)-3-(phenylthio)propanoate], the inhibition at 10 µM in data set [1] was found to be 51 ± 5.6%. In data set [2], this molecule had an IC50 at 72 h of over 100 µM. For `CCOC(=O)C(Cc1ccccc1Cl)C[S+]([O-])c1ccccc1` (centres unmarked) [INF48, ethyl 2-(2-chlorobenzyl)-3-(phenylsulphinyl)propanoate] the same measures were 33.6 ± 1.2% and over 35.1 µM. As to `CCOC(=O)C(Cc1ccccc1Cl)CS(=O)(=O)c1ccccc1` (centres unmarked) [INF49, ethyl 2-(2-chlorobenzyl)-3-(phenylsulphonyl)-propanoate], the inhibition at 10 µM in data set [1] turned out to be 50.6 ± 5.8%. Further, in data set [2], the 50% inhibitory concentration (IC50) at 72 h is over 100 µM.

Regarding `CCOC(=O)/C(=C/c1ccccc1Cl)C[S+]([O-])c1ccccc1` (centres unmarked) [INF50, (Z)-ethyl 3-(2-chlorophenyl)-2-((phenylsulphinyl)methyl)acrylate], the inhibition at 10 µM in data set [1] is 41.1 ± 2.5%. The molecule also showed an IC50 at 72 h in data set [2] of 9.7 ± 0.2 µM. For `CCOC(=O)/C(=C/c1ccccc1Cl)CS(=O)(=O)c1ccccc1` [INF51, ethyl (Z)-3-(2-chlorophenyl)-2-((phenylsulphonyl)methyl)acrylate] the same measures were 38.9 ± 4.5% and 20.1 ± 14.3 µM. In the case of `CCOC(=O)C(CSCC(NC(=O)OC(C)(C)C)C(=O)OC)Cc1ccccc1Cl` (centres unmarked) [INF55, ethyl 3-((2-((tert-butoxycarbonyl)amino)-3-methoxy-3-oxopropyl)thio)-2-(2-chlorobenzyl)propanoate], the inhibition at 10 µM in data set [1] was under 10%. In addition, in data set [2], the IC50 at 72 h was over 100 µM.

With `CCOC(=O)/C(=C/c1ccccc1Cl)CSC1CCCCC1` [INF56, (Z)-ethyl 3-(2-chlorophenyl)-2-((cyclohexylthio)methyl)acrylate], the inhibition at 10 µM in data set [1] was 41.6 ± 3.9%. Also, the IC50 at 72 h in data set [2] is over 100 µM. Consider `CCOC(=O)/C(=C/c1ccccc1Cl)COc1ccccc1` [INF57, (E)-ethyl 3-(2-chlorophenyl)-2-(phenoxymethyl)acrylate], for which the inhibition at 10 µM in data set [1] came to 34.5 ± 0.3%. Also, the concentration for half-maximal inhibition (IC50) at 72 h in data set [2] was over 100 µM. For `CCOC(=O)C(Cc1ccccc1Cl)CN1CCCC1` (centres unmarked) [INF61, ethyl 2-(2-chlorobenzyl)-3-(pyrrolidine-1-yl)propanoate] the same measures were 41.7 ± 5.2% and over 100 µM. For `CCCNC(=O)/C(=C/c1ccccc1Cl)CSc1ccccc1` [INF82, (Z)-3-(2-chlorophenyl)-2-((phenylthio)methyl)-N-propylacrylamide] the same measures were 19 ± 4.1% and 63.3 ± 1.3 µM. For `CCOC(=O)/C(=C/c1ccccc1Cl)CSCC(NC(C)=O)C(=O)O` (centres unmarked) [INF85], in that order: 21.3 ± 4.6% and over 100 µM. `O=C(O)/C(=C/c1ccccc1Cl)CSC1CCCCC1` [INF86, (Z)-3-(2-chlorophenyl)-2-((cyclohexylthio)methyl)acrylic acid]: the inhibition at 10 µM in data set [1] was under 10%. The same molecule registered an IC50 at 72 h in data set [2] of over 100 µM. For `CCOC(=O)C(CSC1CCCCC1)Cc1ccccc1Cl` (centres unmarked) [INF110, ethyl 2-(2-chlorobenzyl)-3-(cyclohexylthio)propanoate] the same measures were under 10% and 66 ± 1.4 µM. `CCOC(=O)C(Cc1ccccc1Cl)CS(=O)(=O)C1CCCCC1` (centres unmarked) [INF111, ethyl 2-(2-chlorobenzyl)-3-(cyclohexylsulphonyl)propanoate]: the inhibition at 10 µM in data set [1] was under 10%. This molecule also came in with a half-maximal inhibitory concentration (IC50) at 72 h in data set [2] of 98.1 ± 4.8 µM. For the molecule `CCOC(=O)[C@@H]1CCCN(C(=O)/C(=C/c2ccccc2Cl)CSc2ccccc2)C1` [INF202, ethyl (R,Z)-1-(3-(2-chlorophenyl)-2-((phenylthio)methyl)acryloyl)piperidine-3-carboxylic acid], the inhibition at 10 µM in data set [1] was 40.9 ± 1.2%. As for `CCOC(=O)[C@H]1CCCN(C(=O)/C(=C/c2ccccc2Cl)CSc2ccccc2)C1` [INF203, ethyl (S,Z)-1-(3-(2-chlorophenyl)-2-((phenylthio)methyl)acryloyl)piperidine-3-carboxylate], in data set [1], the inhibition at 10 µM is 14.4 ± 4.3%. Same read-out and setting: with `CCOC(=O)C1CCCN(C(=O)/C(=C/c2cccc(Cl)c2)CSc2ccccc2)C1` (centres unmarked) [INF230, ethyl (Z)-1-(3-(3-chlorophenyl)-2-((phenylthio)methyl)acryloyl)piperidine-3-carboxylate] the figure was 39 ± 15.4%; with `CCOC(=O)C1CCCN(C(=O)/C(=C/c2ccccc2[N+](=O)[O-])CSc2ccccc2)C1` (centres unmarked) [INF231, ethyl (Z)-1-(3-(2-nitrophenyl)-2-((phenylthio)methyl)acryloyl)piperidine-3-carboxylate], 32.6 ± 19.8%.
